The values below come from the OligoGym collection.

The target of this data set is MRFAP1. Briefly: reporter assay of Huesken 2005. As to conditions: siRNA. (In general: A reporter such as luciferase makes a cellular process visible.)

Oligonucleotides are written 5' to 3', each unit as a sugar letter and its base; * is a phosphorothioate linkage, no mark a phosphodiester; rarer units and linkages stand in square brackets, end groups in braces. Plain capitals give the bases only. d = 2'-deoxy (DNA); r = 2'-OH (RNA)
Also: test concentration or dose not given here.

For “sense rUrCrUrUrGrGrGrUrGrArCrCrUrGrArUrArGrCdTdT / antisense rGrCrUrArUrCrArGrGrUrCrArCrCrCrArArGrAdAdA”, the normalised inhibition (eCFP-eYFP dual reporter) stood at 45.6%.
With “sense rUrGrCrArGrCrArArUrGrGrCrArGrArArGrArAdTdT / antisense rUrUrCrUrUrCrUrGrCrCrArUrUrGrCrUrGrCrAdTdG” the figure was 72.9%; with “sense rUrUrGrGrArArArArUrGrCrGrCrUrCrArCrArUdTdT / antisense rArUrGrUrGrArGrCrGrCrArUrUrUrUrCrCrArAdAdT”, 38.7%; with “sense rGrUrCrCrCrUrGrUrGrArCrArCrUrGrArGrArCdTdT / antisense rGrUrCrUrCrArGrUrGrUrCrArCrArGrGrGrArCdCdC”, 43%.
On to “sense rCrCrUrGrCrArGrGrGrCrGrCrGrGrGrCrGrGrCdTdT / antisense rGrCrCrGrCrCrCrGrCrGrCrCrCrUrGrCrArGrGdTdG”, for which the normalised inhibition (eCFP-eYFP dual reporter) came out at 60.9%.
For “sense rCrCrGrGrGrGrCrArArGrCrUrGrUrGrGrGrArGdTdT / antisense rCrUrCrCrCrArCrArGrCrUrUrGrCrCrCrCrGrGdTdT”, the normalised inhibition (eCFP-eYFP dual reporter) stood at 44.9%.
For the substance “sense rCrArArArArCrCrCrUrUrArCrCrArUrGrUrUrGdTdT / antisense rCrArArCrArUrGrGrUrArArGrGrGrUrUrUrUrGdAdC”, the normalised inhibition (eCFP-eYFP dual reporter) was 70.3%.
Turning to “sense rArCrCrUrGrArUrArArGrCrArUrUrUrGrArGrGdTdT / antisense rCrCrUrCrArArArUrGrCrUrUrArUrCrArGrGrUdCdT”, the normalised inhibition (eCFP-eYFP dual reporter) is 46.8%.
Turning to “sense rGrCrUrGrArArArCrCrArGrArGrArGrCrCrUrUdTdT / antisense rArArGrGrCrUrCrUrCrUrGrGrUrUrUrCrArGrCdTdT”, the normalised inhibition (eCFP-eYFP dual reporter) amounted to 102%.
As to “sense rGrArGrCrCrGrUrCrCrGrCrGrGrUrUrUrCrCrAdTdT / antisense rUrGrGrArArArCrCrGrCrGrGrArCrGrGrCrUrCdAdC”, the normalised inhibition (eCFP-eYFP dual reporter) was found to be 70.1%.
On to “sense rGrArGrGrArCrUrCrCrArUrGrCrArGrCrArArUdTdT / antisense rArUrUrGrCrUrGrCrArUrGrGrArGrUrCrCrUrCdTdT”, for which the normalised inhibition (eCFP-eYFP dual reporter) was 44.8%.
Turning to “sense rUrUrUrGrGrArArArArUrGrCrGrCrUrCrArCrAdTdT / antisense rUrGrUrGrArGrCrGrCrArUrUrUrUrCrCrArArAdTdC”, the normalised inhibition (eCFP-eYFP dual reporter) came to 47.6%.
With “sense rGrGrCrCrUrUrArCrArCrGrGrCrUrArGrGrArCdTdT / antisense rGrUrCrCrUrArGrCrCrGrUrGrUrArArGrGrCrCdCdA” the figure was 60%; with “sense rCrUrGrArCrArCrUrArCrGrUrUrUrCrUrGrCrUdTdT / antisense rArGrCrArGrArArArCrGrUrArGrUrGrUrCrArGdTdG”, 99.3%; with “sense rUrArGrGrArCrUrGrArUrGrArCrCrUrGrGrGrAdTdT / antisense rUrCrCrCrArGrGrUrCrArUrCrArGrUrCrCrUrAdGdC”, 70.4%.
For “sense rGrArGrUrGrUrCrGrUrGrCrArGrArCrArArGrCdTdT / antisense rGrCrUrUrGrUrCrUrGrCrArCrGrArCrArCrUrCdAdG”, the normalised inhibition (eCFP-eYFP dual reporter) was found to be 64.8%.
“sense rUrCrUrGrCrUrGrCrCrCrGrUrCrArUrCrCrArCdTdT / antisense rGrUrGrGrArUrGrArCrGrGrGrCrArGrCrArGrAdAdA”: the normalised inhibition (eCFP-eYFP dual reporter) was 35.3%.
For “sense rUrArGrArArGrArGrGrArCrUrCrCrArUrGrCrAdTdT / antisense rUrGrCrArUrGrGrArGrUrCrCrUrCrUrUrCrUrAdGdA”, the normalised inhibition (eCFP-eYFP dual reporter) is 68.6%.
With “sense rArCrUrArUrCrUrArUrUrArUrArArCrCrUrGrCdTdT / antisense rGrCrArGrGrUrUrArUrArArUrArGrArUrArGrUdGdT” the figure was 42.2%; with “sense rGrArCrUrUrCrArUrCrUrGrGrGrArCrUrGrUrGdTdT / antisense rCrArCrArGrUrCrCrCrArGrArUrGrArArGrUrCdTdG”, 82.4%; with “sense rGrArGrArUrGrCrUrGrGrUrGrCrArGrCrUrCrGdTdT / antisense rCrGrArGrCrUrGrCrArCrCrArGrCrArUrCrUrCdGdG”, 32.2%.
Consider “sense rGrCrUrCrUrUrUrCrUrUrGrGrGrUrGrArCrCrUdTdT / antisense rArGrGrUrCrArCrCrCrArArGrArArArGrArGrCdAdA”, for which the normalised inhibition (eCFP-eYFP dual reporter) came out at 95.8%.
With “sense rCrArCrUrArCrGrUrUrUrCrUrGrCrUrArUrGrGdTdT / antisense rCrCrArUrArGrCrArGrArArArCrGrUrArGrUrGdTdC” the figure was 58%.
As to “sense rUrUrGrUrUrCrGrUrCrUrGrUrArCrArArGrUrUdTdT / antisense rArArCrUrUrGrUrArCrArGrArCrGrArArCrArAdGdA”, the normalised inhibition (eCFP-eYFP dual reporter) was found to be 55.5%.
Regarding “sense rUrUrArCrCrArUrGrUrUrGrArArArArCrArArAdTdT / antisense rUrUrUrGrUrUrUrUrCrArArCrArUrGrGrUrArAdGdG”, the normalised inhibition (eCFP-eYFP dual reporter) is 91.3%.
Regarding “sense rCrArUrGrCrArGrCrArArUrGrGrCrArGrArArGdTdT / antisense rCrUrUrCrUrGrCrCrArUrUrGrCrUrGrCrArUrGdGdA”, the normalised inhibition (eCFP-eYFP dual reporter) was found to be 79.1%.
Regarding “sense rUrCrUrUrCrGrUrGrArGrCrCrGrUrCrCrGrCrGdTdT / antisense rCrGrCrGrGrArCrGrGrCrUrCrArCrGrArArGrAdCdT”, the normalised inhibition (eCFP-eYFP dual reporter) was determined as 35.4%.
As for “sense rCrGrGrGrGrCrArArGrCrUrGrUrGrGrGrArGrAdTdT / antisense rUrCrUrCrCrCrArCrArGrCrUrUrGrCrCrCrCrGdGdT”, the normalised inhibition (eCFP-eYFP dual reporter) came out at 69.6%.
With “sense rArArGrGrCrCrGrArCrGrArGrArArGrGrCrGrCdTdT / antisense rGrCrGrCrCrUrUrCrUrCrGrUrCrGrGrCrCrUrUdCdT” the figure was 63.1%; with “sense rGrGrUrCrArArArArCrCrCrUrUrArCrCrArUrGdTdT / antisense rCrArUrGrGrUrArArGrGrGrUrUrUrUrGrArCrCdTdC”, 84.5%; with “sense rArGrGrGrCrGrGrArGrArArGrGrCrCrGrArCrGdTdT / antisense rCrGrUrCrGrGrCrCrUrUrCrUrCrCrGrCrCrCrUdGdG”, 23.9%.
Regarding “sense rUrCrCrCrUrGrArArCrUrUrUrGrGrGrUrCrCrCdTdT / antisense rGrGrGrArCrCrCrArArArGrUrUrCrArGrGrGrAdGdC”, the normalised inhibition (eCFP-eYFP dual reporter) stood at 53.3%.
“sense rCrGrGrUrArUrGrGrGrArGrArUrGrArGrGrUrCdTdT / antisense rGrArCrCrUrCrArUrCrUrCrCrCrArUrArCrCrGdGdG”: the normalised inhibition (eCFP-eYFP dual reporter) was 84.8%.
The same measure for “sense rUrGrUrUrCrUrCrArCrUrGrArCrArCrUrArCrGdTdT / antisense rCrGrUrArGrUrGrUrCrArGrUrGrArGrArArCrAdGdA”: 68.9%; for “sense rCrGrGrArCrGrCrGrCrGrCrCrCrGrUrGrCrGrCdTdT / antisense rGrCrGrCrArCrGrGrGrCrGrCrGrCrGrUrCrCrGdCdG”: 19.7%.
For the substance “sense rArCrUrCrGrGrCrCrCrGrArGrCrUrCrGrGrUrCdTdT / antisense rGrArCrCrGrArGrCrUrCrGrGrGrCrCrGrArGrUdCdT”, the normalised inhibition (eCFP-eYFP dual reporter) came to 61.5%.
On to “sense rArArArArUrArArCrUrUrUrGrArUrUrUrGrGrAdTdT / antisense rUrCrCrArArArUrCrArArArGrUrUrArUrUrUrUdCdC”, for which the normalised inhibition (eCFP-eYFP dual reporter) stood at 69.9%.
Turning to “sense rUrUrGrGrCrUrGrArCrArUrGrArCrArCrCrCrUdTdT / antisense rArGrGrGrUrGrUrCrArUrGrUrCrArGrCrCrArAdTdC”, the normalised inhibition (eCFP-eYFP dual reporter) is 65.4%.
“sense rGrUrGrArGrCrCrGrUrCrCrGrCrGrGrUrUrUrCdTdT / antisense rGrArArArCrCrGrCrGrGrArCrGrGrCrUrCrArCdGdA”: the normalised inhibition (eCFP-eYFP dual reporter) stood at 72.2%.
The same measure for “sense rUrCrGrUrGrCrGrGrCrGrGrArUrArGrArGrArAdTdT / antisense rUrUrCrUrCrUrArUrCrCrGrCrCrGrCrArCrGrAdGdC”: 87.2%.
For “sense rGrArGrGrArCrArUrCrGrCrGrUrCrGrCrUrGrAdTdT / antisense rUrCrArGrCrGrArCrGrCrGrArUrGrUrCrCrUrCdGdC”, the normalised inhibition (eCFP-eYFP dual reporter) amounted to 77.9%.
As to “sense rGrArArArCrCrArGrArGrArGrCrCrUrUrUrGrUdTdT / antisense rArCrArArArGrGrCrUrCrUrCrUrGrGrUrUrUrCdAdG”, the normalised inhibition (eCFP-eYFP dual reporter) amounted to 86%.
For the substance “sense rCrArArGrUrUrGrGrUrArUrCrCrCrCrArUrArUdTdT / antisense rArUrArUrGrGrGrGrArUrArCrCrArArCrUrUrGdTdA”, the normalised inhibition (eCFP-eYFP dual reporter) came out at 62.5%.
With “sense rArUrGrGrCrGrArArGrArUrGrGrCrCrGrArGrAdTdT / antisense rUrCrUrCrGrGrCrCrArUrCrUrUrCrGrCrCrArUdCdT” the figure was 78.7%; with “sense rArArArArUrCrUrUrArCrArUrGrUrUrArArUrAdTdT / antisense rUrArUrUrArArCrArUrGrUrArArGrArUrUrUrUdGdT”, 76.5%.
With “sense rGrUrGrUrGrUrUrCrCrUrGrArArUrUrUrGrArGdTdT / antisense rCrUrCrArArArUrUrCrArGrGrArArCrArCrArCdCdA”, the normalised inhibition (eCFP-eYFP dual reporter) was 32.7%.
The same measure for “sense rCrUrArUrUrArUrArArCrCrUrGrCrCrUrGrArUdTdT / antisense rArUrCrArGrGrCrArGrGrUrUrArUrArArUrArGdAdT”: 88%.
Regarding “sense rCrArGrGrArGrArUrGrGrCrGrArArGrArUrGrGdTdT / antisense rCrCrArUrCrUrUrCrGrCrCrArUrCrUrCrCrUrGdCdG”, the normalised inhibition (eCFP-eYFP dual reporter) turned out to be 81.9%.
With “sense rCrUrUrGrGrArGrUrUrGrGrArGrCrUrCrArCrCdTdT / antisense rGrGrUrGrArGrCrUrCrCrArArCrUrCrCrArArGdTdC” the figure was 55.2%.
